From US8506973B2, “Injectable anticancer composition for local administration containing hydroxychloroquine” (priority 2009, dated 2013)

Assays:
Sarcoma-180 cells = test: Inhibitory effect on differentiation of subcutaneously transplanted Sarcoma-180 cells in ICR mice; format: in vivo; conditions: cisplatin 20 mg/m^2, 12 animals per group, average of two tests
Method: A sarcoma-180 cell suspension having a cell concentration of 2×10^7 cells/ml was transplanted by subcutaneous injection into the inguinal region of all the groups excluding the normal group, thereby inducing solid cancer.
On the final day of the test, the animals were biopsied, and the number of animals in which sarcoma-180 cells stably grew was measured and used as an anticancer index. The same test was carried out twice, and the two measurements were averaged.

[1] = Solubility of hydroxychloroquine (statement); format: physicochemical

| Structure (SMILES) | number of animals in which cancer cells were observed in the inguinal region by biopsy (Sarcoma-180 cells) [animals] | solubility at room temperature (in words) [1] |
| --- | --- | --- |
| N.N.[Cl][Pt][Cl] [cisplatin, Cisplatin] | 4.5 |  |
| CCN(CCO)CCCC(C)Nc1ccnc2cc(Cl)ccc12 (centres unmarked) [hydroxychloroquine] |  | insoluble at room temperature |
